US20060276460A1, “Use of piperazine phenothiazine derivatives in the manufacture of a medicament with neuroprotector and/or neurotrophic effects on cns and/or pns” (priority 2003, published 2006)

How the values were obtained:
[1] = tested on: spinal cord motoneuron cell culture; test: Neuronal survival and proliferation of spinal cord motoneuron cell culture; format: cell-based, Wistar rats; conditions: 50, 100, 250 nmol/l; counted at 2-120 hours; compared to cultures with BDNF alone
Experimental: In vitro studies were first conducted on spinal cord motoneurons which are involved in peripheral neuropathy diseases as for example amyotrophic lateral sclerose (ALS) according to protocols described by Martinou J. C., Martinou I., Kato A. C. in Cholinergic differentiation factor (CDF/LIF) promotes survival of isolated rat embryonic motoneurons in vitro.
Cells cultures are incubated with different Fluphenazine N-Mustard dihydrochloride concentrations: 50, 100, 250 nmol/l.
Neuronal survival is then monitored at different time points; 2, 24, 48, 72, 96, 120 hours by counting the number of cells under microscope.
the percentage of neuronal survival obtained when cells cultures are incubated with flufenazine is compared to cell cultures incubated alone only with 50 microgram's of brain derived neurotrophic factor (BDNF).

[2] = tested on: cortical neurons; test: Glutamic acid intoxication assay (LDH release); format: cell-based, Wistar rats
Experimental: Further studies were conducted on cortical neurons intoxicated with glutamic acid according to the protocol described by Nilsen J. and Brinton R D in Impact of progestins on oestrogen-induced neuroprotection:synergy by progesterone and 19-norprogesterone and antagonism by medoxyprogesterone acetate. Endocrinology 143:205-212 2002.
(§1) Two types of primary neuronal cell cultures i.e. cortical and spinal cord neurons are isolated from 15-17 days old foetuses of female Wistar rats and cultured in neurobasal/B27 medium until cell differentiation.
The neuroprotective activity is assessed on glu-induced cortical neurons loss. The process of death is initiated by 10 min treatment of neuron cell cultures with neurotoxic concentration of glutamic acid at 100 micromol/l.
The ability of flufenazine to reverse the death process is achieved by subsequent exposure of cells to flufenazine concentrations of 100 and 200 nmol/l. The quantity of LDH released is used to estimate the degree of intoxication and the decrease of quantity released is proportional at cellular resistance to Glu neurotoxicity.
the percentage of neuronal survival obtained when intoxicated cells cultures are incubated with flufenazine is compared to cell cultures without flufenazine.

[3] = tested on: mesencephalic neurons; conditions: 250 nmol/l
Experimental: Cortical neurons are involved in Alzheimer's disease and also in mesencephale neurons or dopaminergic neurons which are themselves involved in Parkinson's disease. (see also protocol described by Y. Mitsumotol, A. Watanabe, T. Miyauchi, F. Jimma, and T. Moriizumi in Stimulation of the regrowth of MPP+/damaged dopaminergic fibers by the treatment of mesencephalic cultures with basigin; J Neural Transm (2001) 108: 1127-1134).
The neuroprotective activity is assessed on MPP+ induced mesencephalic neuron loss with flufenazine concentration of 250 nmol/l
The cells are intoxicated by 2 micromol of MPP+ as neurotoxic during 24 h. The cell culture is then treated with 250 nm/l of flufenazine.
The percentage of mesencephalic neuronal survival obtained when intoxicated cells cultures are incubated with flufenazine is compared to cell cultures without flufenazine.

[4] = tested on: cortical neurons; test: Neurotrophic assay, neurite outgrowth in cortical neuronal cultures; format: cell-based, Wistar rats; conditions: 200 nmol/l; 24 h exposure
Description: The neurotrophic effect i.e. the neurite outgrowth with flufenazine was investigated on both cortical and spinal cord neuronal cultures according to the protocol described by Lucius R, Sievers J. in Postnatal retinal ganglion cells in vitro: protection against reactive oxygen species (ROS)-induced axonal degeneration by cocultured astrocytes Brain Res Dec. 16, 1996;743(1-2):56-62.
as §1
The ability of flufenazine to induce neurite outgrowth is investigated both in cortical and spinal cord neuronal cultures after 24 h exposure to flufenazine.
The neurite length as well as the percentage of cells with neurites are quantified by careful microscopic inspection. On cortex neurons type, the results are depicted in FIG. 4; the cortex neurotrophic effect of flufenazine (200 nmol/l) is expressed as an increase of 30% on neurites length compared to the neurites length in the control cortex neurons

[5] = tested on: SOD mice; test: Survival rate of SOD mice after oral administration; format: in vivo
Experimental: In vivo studies were conducted on transgenic animals with ALS causing mutations, a model for neurodegenerative diseases according to protocols described by Gurney Me, Pu H, Chiu Ay, Dal Canto Mc, Polchow Cy, Alexander Dd, Caliendo J, Hentati A, Kwon Yw, Deng Hx, et al. in Motor neuron degeneration in mice that express a human Cu,Zn superoxide dismutase mutation. Science (1994) 264:1772-1775; and by Mohajeri Mh, Figlewicz Da, Bohn Mc in Selective loss of alpha motoneurons innervating the medial gastrocnemius muscle in a model of amyotrophic lateral sclerosis. Exp. Neurol. (1998) 150:329-336.
Mice are used at 4 months of age i.e. about 2 weeks before the appearance of the first symptoms.
They are genotyped for SOD1 gene using PCR method.
Animals are assigned into four groups to receive a daily oral administration of 1)saline as control, 2) 0.1 mg/kg, 3) 1 mg/kg, 4) 10 mg/kg of flufenazine, until death by weakness and paralysis occurs.
Survival rate was recorded on a daily basis.

**Q.** Which results are given for `OCCN1CCN(CCCN2c3ccccc3Sc3ccc(C(F)(F)F)cc32)CC1` [flufenazine, 4-[3-[2-(trifluoromethyl)-10H-phenothiazin-10-yl]propyl]-1-pyperazine-ethanol]?
**A.** percentage of neuronal survival [1]: increase regularly from 48 h until 120 h; increase of percentage of neuronal survival after glutamic acid intoxication ([2]; 200 nmol/l, after 10 min glutamic acid 100 micromol/l, compared to cultures without flufenazine): 10%; effect on cell survival in the absence of neurotoxic compound ([2]; no glutamic acid, FIG. 2 left part): no or very slight effect; neurite expansion versus control neurons [3]: longer neurite expansion than in control neurons; reversal of MPP+ induced neuronal loss [3]: reverses MPP+ induced neuronal loss to the same extent as Riluzole; increase of TH positives cells ([3]; after 2 micromol MPP+ during 24 h, observed after 48 hours): 30%; increase on neurites length compared to control cortex neurons [4]: 30%; survival of SOD mice compared to saline treated group ([5]; 0.1 mg/kg daily oral): enhanced the survival; survival of SOD mice compared to saline treated group ([5]; 1 mg/kg daily oral): enhanced the survival; survival of SOD mice compared to saline treated group ([5]; 10 mg/kg daily oral): adverse effect and induced a leftward shift in the survival curve
